Experimental data reported in patent US7138411B2, “Substituted benzopyran derivatives for the treatment of inflammation” (G.D. Searle & Co., priority 1997, dated 2006).
Counter-ions that a name gives are not always drawn.

Key:
COX-2 = target: T1, COX-2 (UniProt P35354); assay: Fast assay for COX-2 activity (PGE2 ELISA); format: biochemical, human or murine; details: fast assay: 10 min pre-incubation at 25° C., reaction stopped after two minutes, pH 7.5
T1 sequence (P35354 1-604): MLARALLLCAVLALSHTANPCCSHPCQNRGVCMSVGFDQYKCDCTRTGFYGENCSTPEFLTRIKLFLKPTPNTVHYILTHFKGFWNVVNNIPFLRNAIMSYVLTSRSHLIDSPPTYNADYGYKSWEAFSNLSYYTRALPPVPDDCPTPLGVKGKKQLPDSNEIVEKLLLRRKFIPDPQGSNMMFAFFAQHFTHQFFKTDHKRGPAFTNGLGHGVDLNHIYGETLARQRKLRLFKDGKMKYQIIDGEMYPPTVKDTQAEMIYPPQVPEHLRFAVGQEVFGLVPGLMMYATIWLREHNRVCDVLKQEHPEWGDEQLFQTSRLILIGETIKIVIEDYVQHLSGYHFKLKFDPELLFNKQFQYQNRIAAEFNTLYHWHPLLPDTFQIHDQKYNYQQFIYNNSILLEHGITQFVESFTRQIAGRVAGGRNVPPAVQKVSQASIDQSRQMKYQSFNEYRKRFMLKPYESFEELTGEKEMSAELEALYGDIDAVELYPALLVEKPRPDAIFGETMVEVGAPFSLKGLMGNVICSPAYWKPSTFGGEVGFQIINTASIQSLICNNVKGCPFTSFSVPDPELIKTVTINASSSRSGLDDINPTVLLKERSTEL

Structure (SMILES) | IC50 (COX-2) [µM] | melting point [°C]
O=C(O)C1=Cc2cc(C(=O)Cc3ccccc3)ccc2OC1C(F)(F)F (stereo not drawn) [Example 59, 6-Phenylacetyl-2-trifluoromethyl-2H-1-benzopyran-3-carboxylic acid] | 43 | 159 to 164
Cc1ccc2c(c1)C=C(C(=O)O)C(C(F)(F)F)S2 (stereo not drawn) [Example 145, 6-Methyl-2-(trifluoromethyl)-2H-1-benzothiopyran-3-carboxylic acid] |  | 180.8 to 184.2
O=C(O)C1=Cc2cc(F)cc(Cl)c2OC1C(F)(F)F (stereo not drawn) [Example 133, 8-Chloro-6-fluoro-2-(trifluoromethyl)-2H-1-benzopyran-3-carboxylic acid] |  | 240 to 241
O=C(O)C1=Cc2cc(I)cc(I)c2OC1C(F)(F)F (stereo not drawn) [Example 134, 6,8-Diiodo-2-(trifluoromethyl)-2H-1-benzopyran-3-carboxylic acid] |  | 243 to 244
Cc1cc2c(cc1C)SC(C(F)(F)F)C(C(=O)O)=C2 (stereo not drawn) [Example 149, 6,7-Dimethyl-2-(trifluoromethyl)-2H-1-benzothiopyran-3-carboxylic acid] |  | 235 to 237
NS(=O)(=O)c1ccc2c(c1)C=C(C(=O)O)C(C(F)(F)F)O2 (stereo not drawn) [Example 51, 6-Aminosulfonyl-2-trifluoromethyl-2H-1-benzopyran-3-carboxylic acid] |  | 187.9 to 189.8
O=C(O)C1=Cc2cc(-c3ccc(Cl)s3)ccc2OC1C(F)(F)F (stereo not drawn) [Example 135, 6-(5-Chloro-2-thienyl)-2-(trifluoramethyl)-2H-1-benzopyran-3-carboxylic acid] |  | 205 to 206
O=C(O)C1=Cc2cc(OC(F)(F)F)ccc2NC1C(F)(F)F (stereo not drawn) [Example 162, 1,2-Dihydro-6-(trifluoromethoxy)-2-(trifluoromethyl)-3-quinolinecarboxylic acid] |  | 127.7 to 128.9
CC(C)(C)c1cc2c(cc1Br)C=C(C(=O)O)C(C(F)(F)F)O2 (stereo not drawn) [Example 77, 6-Bromo-7-(1,1-dimethylethyl)-2-(trifluoromethyl)-2H-1-benzopyran-3-carboxylic acid] |  | 198.6 to 199.9
O=C(O)C1=Cc2cc(C#Cc3ccccc3)ccc2OC1C(F)(F)F (stereo not drawn) [Example 124, 6-(Phenylethynyl)-2-(trifluoromethyl)-2H-1-benzopyran-3-carboxylic acid] |  | 240.1 to 241.3
O=C(O)C1=Cc2cc(S(=O)(=O)NCc3ccco3)ccc2OC1C(F)(F)F (stereo not drawn) [Example 69, 6-[[(2-Furanylmethyl)amino]sulfonyl]-2-(trifluoromethyl)-2H-1-benzopyran-3-carboxylic acid] |  | 170 to 173
O=C(O)C1=Cc2cc(Cl)cc(C#CCCCCl)c2OC1C(F)(F)F (stereo not drawn) [Example 118, 6-Chloro-8-(5-chloro-1-pentynyl)-2-(trifluoromethyl)-2H-1-benzopyran-3-carboxylic acid] |  | 154.4 to 156.4
COc1ccc(CN2c3ccc(Cl)cc3C=C(C(=O)O)C2C(F)(F)F)cc1 (stereo not drawn) [Example 168, 6-Chloro-1,2-dihydro-2-(trifluoromethyl)-1-[[4-(methoxy)phenyl]methyl]-3-quinolinecarboxylic acid] |  | 196 to 197
CCN1c2ccc(Cl)cc2C=C(C(=O)O)C1C(F)(F)F (stereo not drawn) [Example 171, 6-Chloro-1,2-dihydro-1-ethyl-2-(trifluoromethyl)-3-quinolinecarboxylic acid] |  | 201 to 202
O=C(O)C1=Cc2cc(Cl)c(C(F)(F)F)cc2OC1C(F)(F)F (stereo not drawn) [Example 94, 6-Chloro-2,7-bis(trifluoromethyl)-2H-1-benzopyran-3-carboxylic acid] |  | 180.9 to 182.4
O=C(O)C1=Cc2c(Cl)ccc(Cl)c2OC1C(F)(F)F (stereo not drawn) [Example 87, 5,8-Dichloro-2-(trifluoromethyl)-2H-1-benzopyran-3-carboxylic acid] |  | 205.7 to 207.1

Other lines, results leading:

IC50 (COX-2) [µM] | melting point [°C] | Structure (SMILES)
< 0.1 | 207.5 to 209.3 | Cc1cc2c(cc1Cl)C=C(C(=O)O)C(C(F)(F)F)O2 (stereo not drawn) [Example 6, 6-Chloro-7-methyl-2-trifluoromethyl-2H-1-benzopyran-3-carboxylic acid]
79 | 201.2 to 202.5 | CN(C)S(=O)(=O)c1ccc2c(c1)C=C(C(=O)O)C(C(F)(F)F)O2 (stereo not drawn) [Example 50, 6-[(Dimethylamino)sulfonyl]-2-trifluoromethyl-2H-1-benzopyran-3-carboxylic acid]
< 0.1 | 226.4 to 227.4 | O=C(O)C1=Cc2cc(Cl)c(Oc3cccc(Cl)n3)cc2OC1C(F)(F)F (stereo not drawn) [Example 199, 6-Chloro-7-[(6-chloro-2-pyridinyl)oxy]-2-(trifluoromethyl)-2H-1-benzopyran-3-carboxylic acid]
1.4 | 244.7 to 249.8 | O=C(O)C1=Cc2c(ccc3ccccc23)OC1C(F)(F)F (stereo not drawn) [Example 63]
> 100 | 224.5 to 225.6 | O=C(O)C1=Cc2cccc(Cl)c2OC1C(F)(F)F (stereo not drawn) [Example 14, 8-Chloro-2-trifluoromethyl-2H-1-benzopyran-3-carboxylic acid]
 | 174.6 to 178.9 | O=C(O)C1=Cc2cc(Cl)cc(CO)c2OC1C(F)(F)F (stereo not drawn) [Example 109, 6-Chloro-8-(hydroxymethyl)-2-(trifluoramethyl)-2H-1-benzopyran-3-carboxylic acid]
 | 243.3 to 252.4 | O=Cc1cc(Cl)cc2c1OC(C(F)(F)F)C(C(=O)O)=C2 (stereo not drawn) [Example 76, 6-Chloro-8-Formyl-2-(trifluoromethyl)-2H-1-benzopyran-3-carboxylic acid]
 | 211.4 to 212.5 | CSc1ccc(-c2cc(Cl)cc3c2OC(C(F)(F)F)C(C(=O)O)=C3)cc1 (stereo not drawn) [Example 127, 6-Chloro-8-[(4-methylthio)phenyl]-2-(trifluoramethyl)-2H-1-benzopyran-3-carboxylic acid]
 | 207 to 211 | O=C(O)C1=Cc2cc(F)cc(F)c2OC1C(F)(F)F (stereo not drawn) [Example 41, 6,8-Difluoro-2-trifluoromethyl-2H-1-benzopyran-3-carboxylic acid]
 | 238 to 240 | CCN(CC)S(=O)(=O)c1ccc2c(c1)C=C(C(=O)O)C(C(F)(F)F)O2 (stereo not drawn) [Example 58, 6-N,N-Diethylaminosulfonyl-2-trifluoromethyl-2H-1-benzopyran-3-carboxylic acid]
36 |  | CC(C)c1cc(Cl)cc2c1OC(C(F)(F)F)C(C(=O)O)=C2 (stereo not drawn) [Example 103, 6-Chloro-8-(1-methylethyl)-2-trifluoramethyl-2H-1-benzopyran-3-carboxylic acid]
 | 220 to 223 | O=C(O)C1=Cc2cc(Cl)cc(I)c2OC1C(F)(F)F (stereo not drawn) [Example 73, 6-Chloro-8-iodo-2-(trifluoramethyl)-2H-1-benzopyran-3-carboxylic acid]
 | 152.2 to 153.3 | O=C(O)C1=Cc2ccccc2OC1C(F)(F)F (stereo not drawn) [Example 10, 2-Trifluoromethyl-2H-1-benzopyran-3-carboxylic acid]
 | 209 to 212 | O=C(O)C1=Cc2cc(-c3cccs3)ccc2OC1C(F)(F)F (stereo not drawn) [Example 136, 6-(2-thienyl)-2-(trifluoromethyl)-2H-1-benzopyran-3-carboxylic acid]
 | 170.6 to 173.2 | CC(C)(C)c1ccc2c(c1)C=C(C(=O)O)C(C(F)(F)F)O2 (stereo not drawn) [Example 89, 6-(1,1-Dimethylethyl)-2-(trifluoromethyl)-2H-1-benzopyran-3-carboxylic acid]
 | 210.5 to 211.5 | CC(C)c1cccc2c1OC(C(F)(F)F)C(C(=O)O)=C2 (stereo not drawn) [Example 102, 8-(1-Methylethyl)-2-trifluoromethyl-2H-1-benzopyran-3-carboxylic acid]
 | 159.4 to 160.9 | CCOc1cccc2c1OC(C(F)(F)F)C(C(=O)O)=C2 (stereo not drawn) [Example 93, 8-Ethoxy-2-trifluoromethyl-2H-1-benzopyran-3-carboxylic acid]
 | 245.8 to 247.8 | O=C(O)C1=Cc2cc3c(cc2OC1C(F)(F)F)OCO3 (stereo not drawn) [Example 92, 6-(Trifluoromethyl)-6H-1,3-dioxolo[4,5-g][1]benzopyran-7-carboxylic acid]
 | 195.6 to 199.1 | COc1c(Cl)cc2c(c1Cl)OC(C(F)(F)F)C(C(=O)O)=C2 (stereo not drawn) [Example 61, 6,8-Dichloro-7-methoxy-2-trifluoromethyl-2H-1-benzopyran-3-carboxylic acid]
 | 202.1 to 203.1 | Cc1ccc2c(c1)OC(C(F)(F)F)C(C(=O)O)=C2 (stereo not drawn) [Example 3, 7-Methyl-2-trifluoromethyl-2H-1-benzopyran-3-carboxylic acid]
 | 212 to 213 | O=C(O)C1=Cc2cc(-c3ccc(Cl)cc3)ccc2OC1C(F)(F)F (stereo not drawn) [Example 137, 6-(4-Chlorophenyl)-2-(trifluoromethyl)-2H-1-benzopyran-3-carboxylic acid]
 | > 300 | O=C(O)C1=Cc2cc(Cl)c(Oc3ccc(C(=O)O)cc3)cc2OC1C(F)(F)F (stereo not drawn) (as salt: potassium) [Example 206, 7-(4-Carboxyphenoxy)-6-chloro-2-(trifluoromethyl)-2H-1-benzopyran-3-carboxylic acid]
 | 238 to 240 | N#Cc1ccc2c(c1)C=C(C(=O)O)C(C(F)(F)F)N2 (stereo not drawn) [Example 164, 6-Cyano-1,2-dihydro-2-(trifluoromethyl)-3-quinolinecarboxylic acid]
